Data from US5340800A, “Peptide medicaments for the treatment of disease” (priority 1992, dated 1994).
Like-named read-outs stand apart in the source and are kept apart here. No end group written: not given here.

How the values were obtained:
[1] = tested on: polymorphonuclear leukocyte migration; assay: Chemotaxis of polymorphonuclear leukocytes (trans-well, zymosan-activated human serum); format: cell-based; conditions: for % Inhibition of Migration (neutrophil chemotaxis): 0.5% zymosan-activated human serum
Experimental: The materials and methods for ascertaining the chemotactic inhibitory properties of peptides are generally known in the art, and the preferred procedure is described by Capsoni, et al., 1989, J. of Immunol. Meth., 120:125. Generally, chemotaxis is determined by positioning the leukocytes and a chemotactic substance on opposite sides of a membrane in appropriate culture media. The preferred apparatus for doing a chemotaxis assay is produced by Costar Corporation, Cambridge, Mass., and is termed the trans-well cell culture apparatus. […] If a substance is being tested for inhibitory activity this can be achieved by combining it with the leukocytes or the chemotactic substance.
The procedure of Capsoni, et al., above, was followed with the following modifications. Leukocytes may be isolated and labelled with ^111 Indium as described for the adhesion assay, above. The cells are resuspended after labelling in an appropriate cell culture medium at about 5×10^6 cells/ml. Next, a desired amount of the cell suspension is mixed with a predetermined amount of the peptide(s) to be tested for inhibitory activity, and the mixture added to an appropriate filter device. Three μm-pore membranes are situated in the wells of a 24 trans-well tissue culture plate. The cell/inhibitory peptide mixture is incubated for a short time at 37° C. to acclimate the cells to the membrane surface, and to provide sufficient time for them to settle onto the membrane surface. Next, inserts are set in wells containing cell culture media. The media contains zymosan-activated human serum at about 0.5%. Zymosan activation generates complement-derived chemotactic factors which attract the leukocytes through the pores of the membrane. This media was also prewarmed for an appropriate time prior to addition to the cell culture wells. After a 30 minute incubation period at 37° C., the number of leukocytes that have migrated through the membrane filter, in the presence or absence of CD18 peptides, is readily determined by counting the amount of ^111 Indium present in the media. This may be facilitated by adding an appropriate detergent at an appropriate concentration to the media in the wells prior to removing an aliquot for counting. In this way, the inhibitory activities of the peptide being tested could be determined.
Many of the materials and methods used to test the inhibitory activity of the CD18 peptides on the chemotactic response of the polymorphonuclear leukocytes are similar or identical to those used to perform the adhesion assays described in Example 1. Polymorphonuclear leukocytes were isolated and labelled with ^111 Indium as described before, and the cells were suspended in RPMI 1640 culture medium at a concentration of 5×10^6 /ml. Next, 75 μl of the cell suspension and 25 μl of media containing a desired concentration of a CD18 peptide were added to trans-well inserts, and the mixture was incubated at 37° C. for 10 minutes.
To the bottom wells of the 24-well plate 0.6 ml of media containing 0.5% zymosan-activated human serum was added. This solution was also warmed to 37° C. for 10 minutes prior to use.
Next, the assay was conducted by incubating the trans-well inserts containing the cell suspension with the desired CD18 peptide in the 24-well plates at 37° C. for 30 minutes. Subsequently, the inserts were removed, and 60 μl of a 10% sodium dodecyl sulphate solution was added to the wells of the 24-well plate. The plates were incubated with gentle shaking at room temperature for 15 minutes, and 110 μl aliquots were removed and the amount of ^111 Indium determined using a gamma-counter.

[2] = tested on: polymorphonuclear leukocyte adhesion to endothelial cells activated with IL1; format: cell-based, human

## IGWRNVTRLLVFATDDGFHFAGDGKLGAI [Peptide 4-29, NH2 --Ile--Gly--Trp--Arg--Asn--Val--Thr--Arg--Leu--Leu--Val--Phe--Ala--Thr--Asp--Asp--Gly--Phe--His--Phe--Ala--Gly--Asp--Gly--Lys--Leu--Gly--Ala--Ile--COOH]
[1]; 6 donors, 10^-4 -10^-7
  concentration of peak activity in chemotaxis inhibition: 10^-5 M
[1]; 10^-4 -10^-5 M
  inhibition of chemotaxis migration (in words): marked inhibition
[1]; 10^-4 M, donor 140
  % Inhibition of Migration (neutrophil chemotaxis): 83%
[1]; 10^-4 M, donor 195
  percent inhibition (-) or enhancement of polymorphonuclear leukocyte migration: -93%
  % Inhibition of Migration (neutrophil chemotaxis): 76%
[1]; 10^-4 M, donor 279
  % Inhibition of Migration (neutrophil chemotaxis): 74%
[1]; 10^-4 M, donor 363
  % Inhibition of Migration (neutrophil chemotaxis): 76%
[1]; 10^-4 M, donor 499
  percent inhibition (-) or enhancement of polymorphonuclear leukocyte migration: -87%
[1]; 10^-4 M, donor 591
  percent inhibition (-) or enhancement of polymorphonuclear leukocyte migration: -74%
[1]; 10^-4 M, donor 593
  percent inhibition (-) or enhancement of polymorphonuclear leukocyte migration: -88%
[1]; 10^-5 M, donor 140
  % Inhibition of Migration (neutrophil chemotaxis): 69%
[1]; 10^-5 M, donor 169
  % Inhibition of Migration (neutrophil chemotaxis): 75%
[1]; 10^-5 M, donor 195
  percent inhibition (-) or enhancement of polymorphonuclear leukocyte migration: -93%
  % Inhibition of Migration (neutrophil chemotaxis): 87%
[1]; 10^-5 M, donor 279
  % Inhibition of Migration (neutrophil chemotaxis): 49%
[1]; 10^-5 M, donor 359
  % Inhibition of Migration (neutrophil chemotaxis): 74%
[1]; 10^-5 M, donor 363
  % Inhibition of Migration (neutrophil chemotaxis): 79%
[1]; 10^-5 M, donor 499
  percent inhibition (-) or enhancement of polymorphonuclear leukocyte migration: -79%
[1]; 10^-5 M, donor 591
  percent inhibition (-) or enhancement of polymorphonuclear leukocyte migration: -88%
[1]; 10^-5 M, donor 593
  percent inhibition (-) or enhancement of polymorphonuclear leukocyte migration: -88%
[1]; 10^-6 M, donor 140
  % Inhibition of Migration (neutrophil chemotaxis): 2%
[1]; 10^-6 M, donor 195
  percent inhibition (-) or enhancement of polymorphonuclear leukocyte migration: 11%
  % Inhibition of Migration (neutrophil chemotaxis): 34%
[1]; 10^-6 M, donor 279
  % Inhibition of Migration (neutrophil chemotaxis): 17%
[1]; 10^-6 M, donor 363
  % Inhibition of Migration (neutrophil chemotaxis): 34%
[1]; 10^-6 M, donor 499
  percent inhibition (-) or enhancement of polymorphonuclear leukocyte migration: 0%
[1]; 10^-6 M, donor 591
  percent inhibition (-) or enhancement of polymorphonuclear leukocyte migration: 0%
[1]; 10^-6 M, donor 593
  percent inhibition (-) or enhancement of polymorphonuclear leukocyte migration: 4%
[1]; 10^-7 M, donor 140
  % Inhibition of Migration (neutrophil chemotaxis): 0%
[1]; 10^-7 M, donor 279
  % Inhibition of Migration (neutrophil chemotaxis): 0%
[1]; PMNs from 6 donors
  inhibitory activity on chemotaxis (in words): significant activity being observed for all donors
[2]; 10^-7 M, donor 155*, peptide 1 wk 4°
  Percent Change in PMN Adhesion to ECs activated with IL1: +59%
[2]; 10^-7 M, donor 272*, peptide 1 wk 4°
  Percent Change in PMN Adhesion to ECs activated with IL1: +2%
[2]; 10^-8 M, donor 108*, peptide frozen
  Percent Change in PMN Adhesion to ECs activated with IL1: +21%
[2]; 10^-8 M, donor 489*, peptide frozen
  Percent Change in PMN Adhesion to ECs activated with IL1: -3%
